This assay deals with T1, Steroid 17-alpha-hydroxylase/17,20 lyase (Homo sapiens, UniProt P05093).
T1 sequence (P05093 whole entry): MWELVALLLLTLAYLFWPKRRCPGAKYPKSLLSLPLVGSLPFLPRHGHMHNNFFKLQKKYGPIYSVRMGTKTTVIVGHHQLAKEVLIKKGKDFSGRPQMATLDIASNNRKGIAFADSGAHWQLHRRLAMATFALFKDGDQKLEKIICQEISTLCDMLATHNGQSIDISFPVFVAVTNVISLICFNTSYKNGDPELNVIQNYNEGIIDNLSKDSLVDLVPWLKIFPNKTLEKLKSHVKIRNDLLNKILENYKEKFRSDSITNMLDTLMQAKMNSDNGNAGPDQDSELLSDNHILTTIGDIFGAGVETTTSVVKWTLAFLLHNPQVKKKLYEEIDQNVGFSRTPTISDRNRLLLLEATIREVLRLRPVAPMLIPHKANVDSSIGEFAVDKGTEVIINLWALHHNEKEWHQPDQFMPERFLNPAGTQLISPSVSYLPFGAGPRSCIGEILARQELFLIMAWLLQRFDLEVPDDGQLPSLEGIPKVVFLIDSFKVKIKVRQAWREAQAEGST
Kind of assay: Inhibition of human Steroid 17-alpha-hydroxylase/17,20 lyase.

Our source for the IC50 values is ChEMBL document CHEMBL1128152, “Active-site conformation of 17-(3-pyridyl)androsta-5,16-dien-3-ol, a potent inhibitor of the P450 enzyme C17-hydroxylase/C17-20 lyase” (Bioorg Med Chem Lett, 1995).

Broadly, the IC50 is the midpoint of a concentration-inhibition curve.

On to `C[C@]12CC[C@H](O)CC1=CC[C@@H]1[C@@H]2CC[C@]2(C)C(c3cccnc3)=CC[C@@H]12` [ABIRATERONE], for which the IC50 is approximately 1 nM.
